Measured values as given in patent US10793601B2, “Therapeutic spalt-like transcription factor 4 (SALL4) peptide” (National University of Singapore, priority 2016, dated 2020).
Ends that are not written are not given here.

Key:
SNU387 cells = experiment: Cell viability assay in SNU387 cells (no SALL4 expression); format: cell-based; conditions: cell viability after 72 hr
Experimental: FIGS. 6A-6B. Therapeutic window of PEN-FFW in HCC cell lines. FIG. 6A: Peptides were added to HCC cell line SNU398 with high expression of SALL4. FIG. 6B: HCC cell line SNU387 with no expression of SALL4, and cell viability was measured after 72 hr of incubation.
The efficacies of the FFW, WT and MUT peptides were compared at the cellular level and in mice. A penetratin sequence (PEN) was attached to the N-terminus of each peptide to facilitate cell penetration in vitro. […] The therapeutic window of PEN-FFW in SALL4 expressing HCC cells was accessed in SNU387 cells, a HCC line with undetectable level of SALL4, as well as SNU398. The MUT and WT SALL4 peptides were also included in this assay for comparison (FIGS. 6 A & B).

SNU398 = experiment: RNA-seq transcriptome analysis of treated SNU398; format: cell-based; conditions: SNU398 treated 8 hrs
Experimental: SNU398 were treated PEN, PEN-MUT, PEN-WT & PEN-FFW for 8 hrs and paired-end RNA-seq was performed for the treated samples. RNA-seq reads of each sample were mapped to hg19 using the STAR aligner. Normalization between the samples was based on the proportionality of the numbers of the mapped reads. The expression fold change of a transcript was obtained using linear regression of the reads between the two samples cross all exons. Differential expression between two samples was selected by using the fold change cut off of 2. Hierarchical clustering was performed based on average linkage to generate the clustering tree as well as heat maps. For identification of enriched gene sets or pathways, Gene Set Enrichment Analysis (GSEA) was performed based on the normalized data and using the GSEA tool (broad.mit.edu/gsea/) with msigdb.v5.0.

in vitro = conditions: human, plasma, pH 7.4
Experimental: PEN-FFW was incubated with human plasma (pH7.4) at 37° C. over a 24 hour period (5 timepoints). Incubations were performed at a concentration of 1 μM (final DMSO concentration 2.5%). Reactions were terminated at 0, 5, 10, 15, 30 min, or 0, 1, 2, 4 and 24 hour, by addition of 2 volumes of methanol containing 1% Formic acid. The samples were centrifuged (2500 rpm, 45 min, 4° C.) and the supernatants diluted with 2 volumes of 0.2% Formic acid (aq) (containing Metoprolol (internal standard)). […] The percentage of parent peptide remaining at each time point relative to the 0 min sample was calculated from LC-MS/MS peak area ratios (compound peak area/internal standard peak area).

[1] = mouse, in vivo
Experimental: (§1) Mice were exposed to intraperitoneal (IP) administration of PEN-FFW (30 mg/kg) or vehicle (10% DMSO) every alternate day over the course of 17 days to a cumulative dose of 270 mg/kg.
(§2) Toxicity of PEN-FFW was studied in vivo in C57BL/6 mice (n=4). Theses mice were exposed to intraperitoneal (IP) administration of PEN-FFW (30 mg/kg) or vehicle (10% DMSO) every alternate day over the course of 17 days to a cumulative dose of 270 mg/kg. […] After a 7-day washout period, complete blood counts and liver function assay tests were performed, and organs were harvested for histology. Potential liver injury caused by the peptide treatment was studied by testing serum AST (Aspartate Aminotransferase) and ALT (Alanine Aminotransferase) levels.
(§3) 6-8-week old female C57BL mice were given PEN-FFW (30 mg/kg) (n=3) or DMSO control (n=2) every alternate day, for a total of 17 day, to a cumulative dose of 270 mg/kg. The mice were observed and weighted throughout the period. A 7 days wash out period were given before the mice were sacrificed with their blood and organs collected. Blood count were perform immediately with Celltact MEK6450 (Nihon Kohden, Japan), and serum were subjected for ALT and AST assay on the same day. ALT and AST were performed according to the manufacturer's protocol (Sigma-Aldrich, Merck, Germany). The organs were fixed with neutral buffered Formalin and embedded in paraffin. […]

SNU398 cells = experiment: Cell viability assay in SNU398 cells; format: cell-based; conditions: ratio of EC50, SNU398
Experimental: FIGS. 3A-3E. Key residues involved in SALL4 (1-12)-RBBp4 binding. […] The difference in the binding free energy (ΔΔGbind) of the alanine mutants (ΔGmutant, Ala7 was mutated to glycine) and wild type (ΔGwild type) was calculated (ΔΔGbind=ΔGmutant−ΔGwild type). ΔΔGbind was tabulated (left) and plotted in a bar chart (right). […] Mutated residues are highlighted in red. The IC50 of each peptide, including WT, was determined by Fluorescence Polarization (FP). Different concentrations of each peptide were titrated into a mixture of 0.04 μM RBBp4 and 0.01 μM of C-labelled FITC-SALL4 WT peptide. Polarization was measured in mP. […] Pep-1 carrier was added to the peptide to facilitate cellular penetration of the peptides.
FIGS. 5A-5B. Development of a potent therapeutic peptide FFW.
SNU398 was grown in RPMI supplemented with 10% fetal bovine serum (FBS) at 37° C. in a humidified atmosphere of 5% CO2. 3000 cells were seeded in each well of a 96 well plate with 100 μL of medium. Before peptide treatment, cells were washed twice with PBS and treated with different concentrations of peptide in OPTIMEM (LifeTech). Media was added after 4 hrs of incubation at 37° C., and cells incubated for another 68 hrs. Tetrazolium (CellTiter96 AQueous One Solution Cell Proliferation Assay, Promega) was added after 72 hrs incubation with the peptides, and the plate was read at a plate reader at 490 nm after 1 hr of incubation in the dark at 37° C.

PTEN = PTEN mRNA in resected SNU398 tumors by real-time PCR; format: in vivo, NOD/SCID/gamma mice; conditions: harvested SNU398 tumors
Experimental: FIGS. 7A-7E. Anti-tumor activity of the candidate therapeutic peptide FFW. FIG. 7A: 7.2×10^5 SNU398 cells were inoculated subcutaneously into the right flank of NOD/SCID/gamma mice (NSG mice). Tumors were allowed to grow for one week before peptide treatments were administered every alternate day for a total of five injections. FIG. 7B: Tumor growth was documented by plotting tumor volume against time. […] FIG. 7C: Relative size of tumors resected on day 20. FIG. 7D: tumor weight was determined (n=5). PEN-FFW treated mice had the smallest tumors (μ=88.34 mg) compared to PEN (μ=1550.78 mg), PEN-MUT (μ=1273.46 mg) and PEN-WT (μ=563.46 mg). FIG. 7E: Total RNA was isolated from the resected tumors and expression of PTEN was measured using real-time PCR.
Tumors resected from mice were homogenized in Trizol. Total RNA was extracted and treated with RNase-free DNase (Qiagen). Reverse transcription was carried out using Superscript III Reverse Transcriptase. Quantitative PCR was performed using GoTaq qPCR Master Mix (Promega). Amplification was done with a Corbett Rotor Gene 6000 (Qiagen). Each sample was assayed in triplicate.

[2] = Toxicity study, repeated IP administration; conditions: 30 mg/kg IP every alternate day, 17 days, cumulative 270 mg/kg
Experimental: as §1, §2, §3

Q: Which “specificity SNU398 (SALL4 high) versus SNU387 (no SALL4)” value (SNU387 cells) does the source give for RQIKIWFQNRRMKWKKRRKFAKFQWI [PEN-FFW] here?
A: specificity of PEN-FFW in targeting SALL4-high HCC cells (SNU398)

Q: And the “share of DEGs upregulated” value (SNU398)?
A: more than 99%

Q: And the remaining at 0.5 h, 1 μM (in vitro)?
A: > 90%

Q: And the remaining at 4 h, 1 μM (in vitro)?
A: > 50%

Q: And the remaining at 24 h, 1 μM (in vitro)?
A: ~20%

Q: And the “tissue damage by microscopic examination of major organs” value [1]?
A: No tissue damage was observed

Q: And the “improvement as compared with PEN-WT” value (SNU398 cells)?
A: 4 fold

Q: And the “increase in PTEN expression in tumors compared to PEN control mice” value (PTEN)?
A: 9 fold

Q: And the “signs of toxicity (weight loss, lethargy, loss of mobility)” value [2]?
A: did not exhibit notable signs of toxicity
